Experimental data published in patent US20040106545A1, “Compounds and methods for modulating cell adhesion” (priority 1996, published 2004).
Entries after “also recorded” stand apart in the source; their conditions may differ. Where two headings read alike, the source gives them in different places. Positions of bridges follow the written chain, without caps; N, C: chain ends. Residues, ends and D or L forms follow the SMILES beside them.

Experiments:
MDA-MB231 = assay: Cytotoxicity, MTT assay, MDA-MB231; assay type: cell-based, human
Procedure, shortened: (§1)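 Human primary endothelial cells, fibroblast lines (IAFp2, WI-38) and cancer lines (MDA-MB231, PC-3) receive the CHAVC peptide or the CHGVC control at ≤100 μM. Viability is scored by MTT and DNA synthesis by ^3H-thymidine uptake.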

[1] = test system: Bovine pulmonary artery endothelial cells; assay: Disruption of bovine endothelial cell adhesion; assay type: cell-based; details: 500 μg/ml, 30 minutes
Procedure: For use within one such assay, bovine pulmonary artery endothelial cells may be harvested by sterile ablation and digestion in 0.1% collagenase (type II; Worthington Enzymes, Freehold, N.J.). Cells may be maintained in Dulbecco's minimum essential medium supplemented with 10% fetal calf serum and 1% antibiotic-antimycotic at 37° C. in 7% CO2 in air. Cultures may be passaged weekly in trypsin-EDTA and seeded onto tissue culture plastic at 20,000 cells/cm^2. Endothelial cultures may be used at 1 week in culture, which is approximately 3 days after culture confluency is established. The cells may be seeded onto coverslips and treated (e.g., for 30 minutes) with modulating agent or a control compound at, for example, 500 μg/ml and then fixed with 1% paraformaldehyde. As noted above, disruption of cell adhesion may be determined visually within 24 hours, by observing retraction of the cells from one another. This assay evaluates the effect of a modulating agent on N-cadherin mediated cell adhesion.
Bovine pulmonary artery endothelial cells were harvested by sterile ablation and digestion in 0.1% collagenase (type II; Worthington Enzymes, Freehold, N.J.). Cells were maintained in Dulbecco's minimum essential medium (Clonetics, San Diego, Calif.) supplemented with 10% fetal calf serum (Atlantic Biologicals, Nor cross, Ga.) and 1% antibiotic-antimycotic at 37° C. in 7% CO2 in air. Cultures were passaged weekly in trypsin-EDTA (Gibco, Grand Island, N.Y.) and seeded onto tissue culture plastic at 20,000 cells/cm^2 for all experiments. Endothelial cultures were used at 1 week in culture, which is approximately 3 days after culture confluency was established. The cells used in all protocols were between 4th passage and 10th passage. The cells were seeded onto coverslips and treated 30 minutes with N—Ac-CHAVC-NH2 (SEQ ID NO:10) or N—Ac-CHGVC-NH2 (SEQ ID NO:11) at 500 μg/ml and then fixed with 1% paraformaldehyde.

[2] = Cytotoxicity, MTT assay, PC-3; assay type: cell-based, human; details: human, MTT assay, read-out: PC-3 Cytotox (IC50)
Procedure, shortened: as §1

[3] = test system: A1N4 human breast epithelial cells; assay: Disruption of breast epithelial cell adhesion, E-cadherin staining; assay type: cell-based; details: 500 μg/mL, 48 hours
Procedure: A1N4 human breast epithelial cells (kindly provided by Martha Stampfer, Lawrence Berkeley Laboratory, Berkeley, Calif.) were plated on glass coverslips and cultured in F12/DME containing 0.5% FCS and 10 ng/mL EGF for 24 hours. Fresh medium containing the cyclic peptides (final concentration 500 μg/mL media) N—Ac-CHAVC-NH2 (SEQ ID NO:10) or N—Ac-CHGVC-NH2 (SEQ ID NO:11) was then added. Following 24 hours of culture in the presence of the peptides, the medium was removed and fresh medium containing the peptides was added. The cells were fixed 24 hours later with cold methanol and stored in phosphate buffered saline (PBS).
Coverslips were blocked for 1 hour in 3% ovalbumin/PBS and incubated for a further 1 hour in the presence of 1 μg/mL mouse anti-E-cadherin antibody (Zymed, Gaithersburg, Md.). Primary and secondary antibodies were diluted in PBS containing 6% normal goat serum. Following incubation in the primary antibody, coverslips were washed 3 times for 5 minutes each in PBS and incubated for 1 hour with goat anti-mouse conjugated to fluorescein (Kiekegard and Perry, South San Francisco, Calif.) diluted 1:100. Following a further wash in PBS (3×5 minutes) coverslips were mounted in Vectashield (Vector Labs, Burlingame, Calif.) and viewed with a Zeiss infinity corrected microscope.

N-cadherin = biological target: T1, N-cadherin (Gallus gallus, UniProt P10288); assay: Neurite outgrowth inhibition, rat neurons (Example 21); assay type: cell-based; details: 250 μg/mL; for inhibition at 250 µg/mL: read-out: % Inhibition of neurite outgrowth
T1 construct: expressed in transfected cells; host or cells: 3T3 fibroblasts (monolayer)
T1 sequence (P10288 165-912): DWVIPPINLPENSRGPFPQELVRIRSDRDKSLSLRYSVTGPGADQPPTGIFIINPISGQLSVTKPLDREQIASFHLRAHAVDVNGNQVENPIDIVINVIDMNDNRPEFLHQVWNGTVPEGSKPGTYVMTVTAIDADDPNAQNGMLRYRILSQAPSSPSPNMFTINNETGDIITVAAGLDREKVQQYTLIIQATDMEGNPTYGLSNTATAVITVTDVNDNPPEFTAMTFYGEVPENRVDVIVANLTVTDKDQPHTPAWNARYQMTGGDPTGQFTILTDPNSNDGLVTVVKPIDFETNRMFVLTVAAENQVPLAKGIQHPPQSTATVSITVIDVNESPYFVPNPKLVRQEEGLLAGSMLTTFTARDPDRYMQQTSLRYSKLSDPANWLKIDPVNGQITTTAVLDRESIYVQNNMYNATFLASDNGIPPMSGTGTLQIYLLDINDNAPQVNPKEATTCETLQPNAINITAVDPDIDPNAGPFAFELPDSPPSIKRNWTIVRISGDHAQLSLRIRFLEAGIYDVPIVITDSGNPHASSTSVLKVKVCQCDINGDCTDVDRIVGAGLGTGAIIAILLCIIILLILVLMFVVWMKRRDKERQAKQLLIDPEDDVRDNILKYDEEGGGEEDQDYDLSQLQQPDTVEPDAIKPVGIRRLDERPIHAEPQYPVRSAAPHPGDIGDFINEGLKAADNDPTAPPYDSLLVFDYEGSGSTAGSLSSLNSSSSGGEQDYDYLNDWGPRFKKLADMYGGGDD

inhibition at 250 µg/mL (N-cadherin) [%] | Compound | IC50 (MDA-MB231) [µM] | effect on endothelial cell monolayer / morphology [1] | IC50 ([2]; PC-3 cells (human prostate cancer cell line)) [µM] | E-cadherin staining and monolayer of A1N4 cells [3] | IC50 ([2]; PC-3 prostate cancer cell line) [µM] | IC50 (MDA-MB231; human) [µM] | inhibition of neurite outgrowth (in words) (N-cadherin) | effect on endothelial cell monolayer / morphology ([1]; listed as N—Ac-CAHAVDIC-NH2)
– | CC(=O)N[C@H]1CSSC[C@@H](C(N)=O)NC(=O)[C@H](CC(=O)O)NC(=O)[C@H](C(C)C)NC(=O)[C@H](C)NC(=O)[C@H](Cc2c[nH]cn2)NC(=O)[C@H](C)NC1=O [N—Ac—CAHAVDC—NH2, N-Ac-Cys-Ala-His-Ala-Val-Asp-Cys-NH2] (Ac-CAHAVDC-NH2; disulfide 1-7) | > 100 | endothelial cells retracted from one another; also recorded: had a slight effect | – | – | – | – | – | –
0 | CC(=O)N[C@H]1CSSC[C@@H](C(N)=O)NC(=O)[C@H](C(C)C)NC(=O)CNC(=O)[C@H](Cc2c[nH]cn2)NC1=O [N—Ac—CHGVC—NH2, reference compound] | > 100 | had no affect on the cells | > 100 | displayed E-cadherin staining concentrated at points of cell-cell contact and formed a tightly adherent monolayer | – | – | – | –
82 | CC[C@H](C)[C@@H]1NC(=O)[C@H](CC(=O)O)NC(=O)[C@H](C(C)C)NC(=O)[C@H](C)NC(=O)[C@H](Cc2c[nH]cn2)NC(=O)[C@H](C)NC(=O)[C@@H](NC(C)=O)CSSC[C@@H](C(N)=O)NC1=O (Ac-CAHAVDIC-NH2; disulfide 1-8) | > 100 | – | – | – | – | – | – | neither of the cyclic peptides show activity; also recorded: had no effect on endothelial cell morphology

Compound | inhibition at 250 µg/mL (N-cadherin) [%] | IC50 (MDA-MB231) [µM] | effect on endothelial cell monolayer / morphology [1] | IC50 ([2]; PC-3 cells (human prostate cancer cell line)) [µM] | E-cadherin staining and monolayer of A1N4 cells [3] | IC50 ([2]; PC-3 prostate cancer cell line) [µM] | IC50 (MDA-MB231; human) [µM] | inhibition of neurite outgrowth (in words) (N-cadherin) | effect on endothelial cell monolayer / morphology ([1]; listed as N—Ac-CAHAVDIC-NH2)
CC(=O)N[C@H]1CSSC[C@@H](C(N)=O)NC(=O)[C@H](C(C)C)NC(=O)[C@H](C)NC(=O)[C@H](Cc2c[nH]cn2)NC1=O [N—Ac—CHAVC—NH2, N-Ac-Cys-His-Ala-Val-Cys-NH2] | 65 | – | endothelial cells retracted from one another; also recorded: disrupted the endothelial cell monolayer | – | distribution of E-cadherin is non-contiguous; also recorded: reduced E-cadherin staining with a stitched appearance | > 100 | > 100 | significantly inhibited neurite outgrowth | –
